Publication PMC6100415, “Hepatic Metabolism of Sakuranetin and Its Modulating Effects on Cytochrome P450s and UDP-Glucuronosyltransferases” (Molecules : A Journal of Synthetic Chemistry and Natural …, 2018)
Each block holds one molecule with its values, some of them ahead of it.

Assays:
[1] = NADPH-dependent phase I metabolic stability in human liver microsomes; format: in vitro ADME
Description: (§1) Metabolic stability was measured by monitoring the amount of parent compound that remained in an incubation mixture at designated incubation time points. For the phase I metabolism study, SKN (100 μM) was incubated with liver microsomes (1 mg/mL, rat, mouse, and dog; and 0.5 mg/mL, human), and an NADPH-generation cocktail consisting of nicotinamide adenine dinucleotide phosphate (NADP^+, 1 mM), glucose-6-phosphate (5 mM), glucose-6-phosphate dehydrogenase (1 unit/mL), and MgCl2 (10 mM) in potassium phosphate buffer (0.1 M, pH 7.4) in a total volume of 1 mL. To study phase II glucuronide conjugative metabolism, uridine 5′-diphosphoglucuronic acid (UDPGA) (2 mM) was added as a cofactor. The mixture was incubated in a shaking water bath, and the enzyme reaction was initiated by the addition of NADP^+, UDPGA, or both. Aliquots (100 μL) were removed at 0, 5, 15, 30, 45, and 60 min, and the reaction was terminated by adding two volumes of ice-cold methanol. […] The half-life of SKN was obtained by plotting the remaining amount of SKN against time using Prism 3.0 software (GraphPad, La Jolla, CA, USA). Hepatic intrinsic clearance (CLint, hepatic) was calculated using the following formula [20]:CLint, hepatic = (0.693/t1/2) × (g liver weight/kg body weight) × (mL incubation/mg of microsomal protein) × (mg microsomal protein concentration/g of liver)
(§2) The DAD was set at 280 nm.

[2] = NADPH-dependent phase I metabolic stability in rat liver microsomes; format: in vitro ADME
Description: as §1, §2

[3] = NADPH-dependent phase I metabolic stability in dog liver microsomes; format: in vitro ADME
Description: as §1, §2

[4] = UDPGA-dependent metabolic stability in mouse liver microsomes; format: in vitro ADME; details: for half-life at 100 µM / CLint scaled at 100 µM: mouse, pH 7.4, mouse liver microsomes; for CLint scaled at 100 µM: read-out: CLint, hepatic
Description: as §1, §2

[5] = test system: hPXR-mediated CYP3A4 promoter; assay: PXR-mediated CYP3A4 promoter luciferase assay in HepG2 cells; format: cell-based, human; details: pcDNA3-PXR-transfected HepG cells, SKN 20 μM, 24 h
Description: HepG2 cells (American Tissue Culture Collection, Manassas, VA, USA) were maintained in Dulbecco’s modified Eagle’s essential medium (DMEM), containing 10% fetal bovine serum, 1% nonessential amino acids, 1% GlutaMAX®, and 1% antibiotics/antimycotics at 37 °C in a 5% CO2 atmosphere. The expression plasmid encoding the human constitutive androstane receptor (hCAR; pcDNA3-CAR) and the pGL3-CYP2B6 luciferase construct were kindly provided by Dr. Hongbing Wang (University of Maryland, College Park, MD, USA). The plasmid encoding the human pregnane X receptor (hPXR; pcDNA3-PXR) and the pGL3-CYP3A4 luciferase construct were obtained from Dr. Masahiko Negishi at the National Institutes of Health (Bethesda, MD, USA). Cells were seeded at a density of 1.5 × 10^5 cells/well into a 24-well plate. The next day, the cells were transfected with 0.25 μg of either pcDNA3-CAR or pcDNA3-PXR and 0.25 μg of a promoter luciferase plasmid (either pGL3-CYP2B6 or pGL3-CYP3A4) using Lipofectamine 2000 (Invitrogen, Carlsbad, CA, USA) according to the manufacturer’s instructions. […] The cells were harvested and luciferase activity was measured as described previously.

estrogen receptor (ER) = molecular target: T1, estrogen receptor (ER) (Homo sapiens, UniProt P03372); assay: Estrogen receptor agonist-like activity in ER-positive human breast cancer cells; format: cell-based; details: preliminary data, not shown
T1 construct: endogenous in cells
T1 sequence (P03372 1-595): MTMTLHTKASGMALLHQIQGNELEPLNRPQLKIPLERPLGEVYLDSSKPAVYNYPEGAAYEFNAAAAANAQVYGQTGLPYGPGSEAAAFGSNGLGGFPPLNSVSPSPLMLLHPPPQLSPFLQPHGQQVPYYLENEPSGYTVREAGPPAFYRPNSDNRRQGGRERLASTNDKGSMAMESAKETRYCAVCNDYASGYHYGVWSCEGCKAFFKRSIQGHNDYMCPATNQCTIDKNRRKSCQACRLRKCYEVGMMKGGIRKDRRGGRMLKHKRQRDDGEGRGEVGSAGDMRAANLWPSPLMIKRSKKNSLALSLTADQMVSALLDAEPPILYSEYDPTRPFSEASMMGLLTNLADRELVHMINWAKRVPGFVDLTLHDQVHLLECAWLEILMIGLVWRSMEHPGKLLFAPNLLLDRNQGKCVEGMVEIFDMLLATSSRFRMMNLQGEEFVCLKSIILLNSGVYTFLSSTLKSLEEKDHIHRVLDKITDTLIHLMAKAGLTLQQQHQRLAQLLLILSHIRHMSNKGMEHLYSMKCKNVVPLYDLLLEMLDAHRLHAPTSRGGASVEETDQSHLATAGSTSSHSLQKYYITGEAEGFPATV

[6] = test system: CYP isozymes (all isozyme-specific reactions); assay: CYP inhibition in human liver microsomes, all isozyme-specific reactions; format: in vitro ADME; details: pH 7.4, SKN 10 μM, read-out: inhibitory effect on the formation of any CYP isozyme-specific metabolites
From the text: as §2

CYP2C9 [7] = molecular target: T2, CYP2C9 (Homo sapiens, UniProt P11712); assay: CYP inhibition in human liver microsomes, tolbutamide 6-hydroxylation (TOLHY); details: CYP2C9, TOLHY, SKN 10 μM
T2 sequence (P11712 whole entry): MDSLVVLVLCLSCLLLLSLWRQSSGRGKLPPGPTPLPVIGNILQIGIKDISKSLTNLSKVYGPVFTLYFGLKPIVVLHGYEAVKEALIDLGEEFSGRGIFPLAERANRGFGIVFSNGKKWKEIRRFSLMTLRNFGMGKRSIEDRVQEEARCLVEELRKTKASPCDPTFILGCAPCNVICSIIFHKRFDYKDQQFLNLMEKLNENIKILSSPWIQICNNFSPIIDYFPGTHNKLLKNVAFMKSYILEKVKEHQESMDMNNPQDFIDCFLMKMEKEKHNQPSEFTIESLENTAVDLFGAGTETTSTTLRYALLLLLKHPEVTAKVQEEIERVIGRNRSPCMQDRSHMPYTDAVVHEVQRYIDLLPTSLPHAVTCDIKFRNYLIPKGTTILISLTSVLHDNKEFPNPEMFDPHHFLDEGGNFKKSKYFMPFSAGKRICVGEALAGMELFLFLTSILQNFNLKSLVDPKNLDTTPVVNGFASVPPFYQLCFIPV
Description: (§3) The formation of a metabolite from a CYP isozyme-specific phenotyping reaction (Table 4) was monitored. Each substrate (200 μM), along with SKN (10 μM), was incubated with human liver microsomes (0.5 mg/mL) and an NADPH-generating system in 0.1 M potassium phosphate buffer (pH 7.4) at 37 °C for 60 min in a total volume of 200 μL in a shaking water bath. The metabolic reaction was initiated by adding NADP^+ (1 mM) and stopped by adding 10 μL of trichloroacetic acid. In some experiments, the microsomes were pre-incubated with SKN for 15 min prior to the addition of the cofactor, in order to determine the time-dependent inhibitory effect. […] In contrast, co-incubation refers to experiments in which microsomes and cofactors were incubated in the presence of SKN. After centrifugation of incubation samples at 12,000× g for 15 min at 4 °C, the supernatant (20 μL) was injected into an HPLC-DAD system to analyze the metabolites formation (Supplementary Materials).
(§4) The DAD was set at 248 nm for phenacetin O-deethylation (PCOD), 298 nm for bupropion hydroxylation (BPHY), 276 nm for diclofenac 4′-hydroxylation (DCHY), 230 nm for tolbutamide 6-hydroxylation (TOLHY), 280 nm for dextromethorphan O-demethylation (DEXOD), and 250 nm for testosterone 6β-hydroxylation (TSTHY) and testosterone β-D-glucuronidation (TSTG).

[8] = test system: various cancer cell lines; details: cited from earlier work
CYP2C9 [9] = molecular target: T2, CYP2C9; assay: in vitro; details: human liver microsomes, pH 7.4, probe diclofenac (4′-hydroxylation, DCHY), 200 µM
Description: as §3, §4

CYP2C9 [10] = molecular target: T2, CYP2C9; assay: in vitro; details: human liver microsomes, pH 7.4, probe tolbutamide (6-hydroxylation, TOLHY), 200 µM
Description: as §3, §4

Amount Remaining at 30 min (%) ([1]; human liver microsomes 0.5 mg/mL, SKN 100 μM): 65.5%
amount of SKN remaining after 60 min of incubation ([1]; human liver microsomes, 60 min): greater than 50%
half-life at 100 µM ([1]; pH 7.4, human liver microsomes): > 60 min
CLint scaled at 100 µM ([1]; pH 7.4, human liver microsomes, read-out: CLint, hepatic): < 20.8 mL/min/kg
half-life at 100 µM ([2]; pH 7.4, rat liver microsomes): 10.1 min
CLint scaled at 100 µM ([2]; pH 7.4, rat liver microsomes, read-out: CLint, hepatic): 124 mL/min/kg
Amount Remaining at 30 min (%) ([2]; rat liver microsomes 1 mg/mL, SKN 100 μM): 29.0%
Amount Remaining at 30 min (%) ([3]; dog liver microsomes 1 mg/mL, SKN 100 μM): 18.5%
amount of SKN remaining after 60 min of incubation ([3]; dog liver microsomes, 60 min): 18.5%
half-life at 100 µM ([3]; pH 7.4, dog liver microsomes): 2.7 min
CLint scaled at 100 µM ([3]; pH 7.4, dog liver microsomes, read-out: CLint, hepatic): 641 mL/min/kg
Amount Remaining at 30 min (%) ([4]; NADPH +): 0.0%
t1/2 ([4]; NADPH +): 0.91 min
Amount Remaining at 30 min (%) ([4]; NADPH −): 1.8%
half-life at 100 µM ([4]; NADPH +): 0.9 min
CLint scaled at 100 µM ([4]; NADPH +): 3280 mL/min/kg
half-life at 100 µM ([4]; NADPH −): 3.8 min
CLint scaled at 100 µM ([4]; NADPH −): 802 mL/min/kg
CYP3A4-luciferase activity increase [5]: 3.8 fold
estrogen receptor (ER) agonist-like activity (estrogen receptor (ER)): agonist-like activity
inhibition at 60 min, 10 µM [6]: ≤ 20%
% Inhibition in Pre-Incubation (CYP2C9 [7]; 15 min pre-incubation): 10.1 ± 1.2%
% Inhibition in Co-Incubation (CYP2C9 [7]; human liver microsomes): 2.0 ± 0.6%
Compound: COc1cc(O)c2c(c1)OC(c1ccc(O)cc1)CC2=O (racemic) [SKN, (+/−) 7-O-methylnaringenin]

inhibition at 60 min, 10 µM (CYP2C9 [9]): 1 ± 0.7%
inhibition at 60 min, 10 µM (CYP2C9 [10]): 7.7 ± 0.4%
Compound: O=C1C[C@@H](c2ccc(O)c(O)c2)Oc2cc(O)cc(O)c21 [Eriodictyol, 3′-hydroxynaringenin]
anti-proliferative activity compared to naringenin [8]: two-fold higher

inhibition at 60 min, 10 µM (CYP2C9 [9]): 9.1 ± 1.8%
inhibition at 60 min, 10 µM (CYP2C9 [10]): 12 ± 0.7%
Compound: O=C1C[C@@H](c2ccc(O)cc2)Oc2cc(O)cc(O)c21 [Naringenin]
